# Data published in patent publication US10815222B2, “Compounds for use in the treatment of kinetoplastid infection” (C.N.C.C.S. S.c.a.r.l. COLLEZIONE NAZIONALE DEI COMPOSTI …, priority 2016, dated 2020).
# pEC50, pIC50: −log10 of the molar value. Read-outs that look alike come from different tables or passages of the source.
# Columns and labels:
# Type in all cases: cell-based
# [1] = test system: Bloodstream form of Trypanosoma brucei, strain Lister 427; assay: Trypanosoma brucei growth inhibition assay (CellTiter-Glo, 24 h); settings: Trypanosoma brucei
# Summary of the method: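 Growth read-out was CellTiter-Glo luminescence after 24 h at 37 °C incubation of 1500 bloodstream-form Lister 427 trypanosomes per well with compound, in supplemented IMDM containing 10% FBS and at most 0.25% DMSO.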
# HeLa cells = assay: HeLa cytotoxicity assay (CellTiter Glo, 72 h); settings: Homo sapiens, read-out: Cell Proliferation Hela IC50
# Experimental: (§1) HeLa cells (ATCC® CCL2™) in DMEM (Dulbecco Modified Eagle's Medium) without phenol red, Thermo, 11880, USA+10% FBS+1× PenStrep+1× Gln or HUVEC cells (ATCC® CRL1730™) in EBM-2 (Endothelial Growth Basal Medium, Lonza, CC3156)+EGM-2 SingleQuotsTMSupplements and Growth Factors (Lonza, CC4176)+1× Penicyllin-Streptomycin (PenStrep, ThermoFisher)+1× Glutamine, are plated in a 384 well plate (Thermo, 4334-11, USA) to a density of 2000 cells per well and let recover for four hours at 37° C., 5% CO2 in a humidified atmosphere. After the recovery, compounds are transferred to assay plates as per compound preparation method. Assay plates are then incubated at 37° C., 5% CO2 in a humidified atmosphere for 72 hours. Cell viability is measured by the CellTiter Glo (Promega, G8080, USA) as per manufacturer instruction.
# HUVEC cells = assay: HUVEC cytotoxicity assay (CellTiter Glo, 72 h); settings: Homo sapiens, read-out: Cell Proliferation HUVEC IC50
# Experimental: as §1
# [2] = T. Brucei Growth Inibition Assay, class symbols, read-out: T. Brucei GI EC50
# [3] = Table 3, read-out: T. brucei GI EC50
SMILES,"pEC50 [1, 2]","pEC50 [1, 3]",pIC50 (HeLa cells),pIC50 (HUVEC cells),pEC50 ([1]; read-out: T. Brucei GI EC50)
CCC(=O)CCCN1CCN(C(=O)Cc2c[nH]c3ccccc23)C(c2ncc(-c3ccc4ccccc4c3)[nH]2)C1 (stereo not drawn),6.30 to 7.00,6.31,≤ 4.60,5.00,
CCC(=O)CCCN1CCN(C(=O)Cc2c[nH]c3ncccc23)C(c2ncc(-c3ccc4ccccc4c3)[nH]2)C1 (stereo not drawn),6.00 to 6.29,6.26,≤ 4.60,≤ 4.60,
COc1nc2ccccc2cc1-c1cnc(C2CN(CC3CCOC3)CCN2C(=O)Cn2c(C)nc3ccccc32)[nH]1 (stereo not drawn) [1-(2-(5-(2-methoxyquinolin-3-yl)-1H-imidazol-2-yl)-4-((tetrahydrofuran-3-yl)methyl)piperazin-1-yl)-2-(2-methyl-1H-benzo[d]imidazol-1-yl)ethan-1-one],6.30 to 7.00,6.79,4.69,≤ 4.60,
CCC(O)CCCN1CCN(C(=O)Cc2c(C)[nH]c3ccc(OC)cc23)C(c2ncc(-c3ccc4ccccc4c3)[nH]2)C1 (stereo not drawn) [1-(4-(4-hydroxyhexyl)-2-(5-(naphthalen-2-yl)-1H-imidazol-2-yl)piperazin-1-yl)-2-(5-methoxy-2-methyl-1H-indol-3-yl)ethan-1-one],> 7.00,7.89,4.88,5.03,
COc1ccc2[nH]c(C)c(CC(=O)N3CCN(CC4CC4)CC3c3ncc(-c4ccc5ccccc5c4)[nH]3)c2c1 (stereo not drawn) [1-(4-(cyclopropylmethyl)-2-(5-(naphthalen-2-yl)-1H-imidazol-2-yl)piperazin-1-yl)-2-(5-methoxy-2-methyl-1H-indol-3-yl)ethan-1-one],> 7.00,7.75,≤ 4.60,5.09,
CCCCCCN1CCN(C(=O)Cc2c(C)[nH]c3ccc(OC)cc23)C(c2ncc(-c3ccc4ccccc4c3)[nH]2)C1 (stereo not drawn) [1-(4-hexyl-2-(5-(naphthalen-2-yl)-1H-imidazol-2-yl)piperazin-1-yl)-2-(5-methoxy-2-methyl-1H-indol-3-yl)ethan-1-one],> 7.00,7.10,≤ 4.60,≤ 4.60,
COc1nc2ccccc2cc1-c1cnc(C2CN(Cc3cnn(C)c3)CCN2C(=O)Cc2c(C)[nH]c3ccc(F)cc23)[nH]1 (stereo not drawn) [2-(5-fluoro-2-methyl-1H-indol-3-yl)-1-(2-(5-(2-methoxyquinolin-3-yl)-1H-imidazol-2-yl)-4-((1-methyl-1H-pyrazol-4-yl)methyl)piperazin-1-yl)ethan-1-one],6.30 to 7.00,6.76,4.76,5.17,
COc1nc2ccccc2cc1-c1cnc(C2CN(CC3CCOC3)CCN2C(=O)Cc2c(C)[nH]c3ccc(F)cc23)[nH]1 (stereo not drawn) [2-(5-fluoro-2-methyl-1H-indol-3-yl)-1-(2-(5-(2-methoxyquinolin-3-yl)-1H-imidazol-2-yl)-4-((tetrahydrofuran-3-yl)methyl)piperazin-1-yl)ethan-1-one],> 7.00,7.45,4.73,5.02,
COc1nc2ccccc2cc1-c1cnc(C2CN(C3CCOCC3)CCN2C(=O)Cc2c(C)[nH]c3ccc(F)cc23)[nH]1 (stereo not drawn) [2-(5-fluoro-2-methyl-1H-indol-3-yl)-1-(2-(5-(2-methoxyquinolin-3-yl)-1H-imidazol-2-yl)-4-(tetrahydro-2H-pyran-4-yl)piperazin-1-yl)ethan-1-one],6.30 to 7.00,6.93,≤ 4.60,4.98,
COc1nc2ccccc2cc1-c1cnc(C2CN(Cc3nccs3)CCN2C(=O)Cc2c(C)[nH]c3ccc(F)cc23)[nH]1 (stereo not drawn) [2-(5-fluoro-2-methyl-1H-indol-3-yl)-1-(2-(5-(2-methoxyquinolin-3-yl)-1H-imidazol-2-yl)-4-(thiazol-2-ylmethyl)piperazin-1-yl)ethan-1-one],> 7.00,7.22,≤ 4.60,5.09,
COc1nc2ccccc2cc1-c1cnc(C2CN(C)CCN2C(=O)Cc2c(C)[nH]c3ccc(F)cc23)[nH]1 (stereo not drawn) [2-(5-fluoro-2-methyl-1H-indol-3-yl)-1-(2-(5-(2-methoxyquinolin-3-yl)-1H-imidazol-2-yl)-4-methylpiperazin-1-yl)ethan-1-one],6.30 to 7.00,6.91,4.74,5.25,
COc1ccc2[nH]c(C)c(CC(=O)N3CCN(CC4CCOC4)CC3c3ncc(-c4cc5ccccc5nc4OC)[nH]3)c2c1 (stereo not drawn) [2-(5-methoxy-2-methyl-1H-indol-3-yl)-1-(2-(5-(2-methoxyquinolin-3-yl)-1H-imidazol-2-yl)-4-((tetrahydrofuran-3-yl)methyl)piperazin-1-yl)ethan-1-one],> 7.00,7.64,≤ 4.60,4.63,
COc1ccc2[nH]c(C)c(CC(=O)N3CCN(C)CC3c3ncc(-c4cc5ccccc5nc4OC)[nH]3)c2c1 (stereo not drawn) [2-(5-methoxy-2-methyl-1H-indol-3-yl)-1-(2-(5-(2-methoxyquinolin-3-yl)-1H-imidazol-2-yl)-4-methylpiperazin-1-yl)ethan-1-one],6.30 to 7.00,6.86,≤ 4.60,≤ 4.60,
COc1ccc2[nH]c(C)c(CC(=O)N3CCN(CC4CCOC4)CC3c3ncc(-c4ccc5ccccc5c4)[nH]3)c2c1 (stereo not drawn) [2-(5-methoxy-2-methyl-1H-indol-3-yl)-1-(2-(5-(naphthalen-2-yl)-1H-imidazol-2-yl)-4-((tetrahydrofuran-3-yl)methyl)piperazin-1-yl)ethan-1-one],> 7.00,8.33,≤ 4.60,4.73,
COc1ccc2[nH]c(C)c(CC(=O)N3CCN(C)CC3c3ncc(-c4ccc5ccccc5c4)[nH]3)c2c1 (stereo not drawn) [2-(5-methoxy-2-methyl-1H-indol-3-yl)-1-(4-methyl-2-(5-(naphthalen-2-yl)-1H-imidazol-2-yl)piperazin-1-yl)ethan-1-one],> 7.00,7.40,≤ 4.60,4.66,
"COc1ccc2nc(C(F)(F)F)n(CC(=O)N3CCN(Cc4ccn(C)n4)CC[C@H]3c3ncc(-c4cc5ccccc5nc4OC)[nH]3)c2c1 [(S)-2-(6-methoxy-2-(trifluoromethyl)-1H-benzo[d]imidazol-1-yl)-1-(7-(5-(2-methoxyquinolin-3-yl)-1H-imidazol-2-yl)-4-((1-methyl-1H-pyrazol-3-yl)methyl)-1,4-diazepan-1-yl)ethan-1-one]",> 7.00,,,,
COc1ccc2nc(C)n(CC(=O)N3CCN(Cc4ccn(C)n4)C[C@H]3c3ncc(-c4cc5ccccc5nc4OC)[nH]3)c2c1 [(S)-2-(6-methoxy-2-methyl-1H-benzo[d]imidazol-1-yl)-1-(2-(5-(2-methoxyquinolin-3-yl)-1H-imidazol-2-yl)-4-((1-methyl-1H-pyrazol-3-yl)methyl)piperazin-1-yl)ethan-1-one],> 7.00,,,,
"COc1ccc2nc(C)n(CC(=O)N3CCN(Cc4nncn4C)C[C@H]3c3ncc(-c4cc5ccccc5nc4OC)[nH]3)c2c1 [(S)-2-(6-methoxy-2-methyl-1H-benzo[d]imidazol-1-yl)-1-(2-(5-(2-methoxyquinolin-3-yl)-1H-imidazol-2-yl)-4-((4-methyl-4H-1,2,4-triazol-3-yl)methyl)piperazin-1-yl)ethan-1-one]",6.00 to 6.29,,,,
COc1ccc2nc(C)n(CC(=O)N3CCN(Cc4cocn4)C[C@H]3c3ncc(-c4cc5ccccc5nc4OC)[nH]3)c2c1 [(S)-2-(6-methoxy-2-methyl-1H-benzo[d]imidazol-1-yl)-1-(2-(5-(2-methoxyquinolin-3-yl)-1H-imidazol-2-yl)-4-(oxazol-4-ylmethyl)piperazin-1-yl)ethan-1-one],> 7.00,,,,
COc1ccc2nc(C)n(CC(=O)N3CCN(CC4COC4)C[C@H]3c3ncc(-c4cc5ccccc5nc4OC)[nH]3)c2c1 [(S)-2-(6-methoxy-2-methyl-1H-benzo[d]imidazol-1-yl)-1-(2-(5-(2-methoxyquinolin-3-yl)-1H-imidazol-2-yl)-4-(oxetan-3-ylmethyl)piperazin-1-yl)ethan-1-one],> 7.00,,,,
COc1ccc2nc(C)n(CC(=O)N3CCN(Cc4cnccn4)C[C@H]3c3ncc(-c4cc5ccccc5nc4OC)[nH]3)c2c1 [(S)-2-(6-methoxy-2-methyl-1H-benzo[d]imidazol-1-yl)-1-(2-(5-(2-methoxyquinolin-3-yl)-1H-imidazol-2-yl)-4-(pyrazin-2-ylmethyl)piperazin-1-yl)ethan-1-one],> 7.00,,,,
COc1ccc2nc(C)n(CC(=O)N3CCN(Cc4nccs4)C[C@H]3c3ncc(-c4cc5ccccc5nc4OC)[nH]3)c2c1 [(S)-2-(6-methoxy-2-methyl-1H-benzo[d]imidazol-1-yl)-1-(2-(5-(2-methoxyquinolin-3-yl)-1H-imidazol-2-yl)-4-(thiazol-2-ylmethyl)piperazin-1-yl)ethan-1-one],> 7.00,,,,
COc1nc2ccccc2cc1-c1cnc(C2COCCN2C(=O)OCc2ccccc2)[nH]1 (stereo not drawn) [benzyl 3-(5-(2-methoxyquinolin-3-yl)-1H-imidazol-2-yl)morpholine-4-carboxylate],5.30 to 6.00,,,,
CCC(=O)CCCN1CCN(C(=O)Oc2ccccc2)C(c2ncc(-c3ccc4ccccc4c3)[nH]2)C1 (stereo not drawn) [phenyl 2-(5-(naphthalen-2-yl)-1H-imidazol-2-yl)-4-(4-oxohexyl)piperazine-1-carboxylate],,,,,5.30 to 6.00
